# Experiments:
# [1] = test system: Non-GCB DLBCL PDX models; assay: Compound 1 efficacy (TGI) in non-GCB DLBCL PDX models by EBV status; type: in vivo, mice; conditions: p.o. 7.5 mg/kg BID
# Description: (§1) DLBCL patient-derived xenografted (PDX) models were established in immunodeficient NCG (NOD-Prkdcem26Cd52Il2rgem26Cd22/NjuCrl) mice. These models were classified into GCB and non-GCB subgroups based on immunohistochemistry (IHC) staining using Hans algorithm. Non-GCB DLBCL PDX models were classified into Epstein-Barr virus (EBV) negative and EBV positive subgroups. For efficacy studies, tumor tissues were inoculated subcutaneously into NCG mice. When tumors reached 100˜200 mm^3, mice were randomized into each group with 7˜10 mice/group based on tumor volume. Compound 1 was formulated with 0.5% methyl cellulose as vehicle and treatment was started on the day of randomized grouping. Compound 1 was administrated p.o., 7.5 mg/(kg body weight), BID. Tumor volumes were measured twice weekly in two dimensions using a caliper, and the volume were expressed in mm^3 using the formula:
# (§2) V=0.5(a×b^2) where a and b are the long and short diameters of the tumor, respectively.
# (§3) Tumor growth inhibition (TGI) was calculated using the following formula:
# (§4) % TGI=100×[1−(treatmentvt−treatmentv0)/(vehiclevt−Vehiclev0)]
# (§5) Treatmentvt=tumor volume of treatment group at time t.
# treatmentv0=tumor volume of treatment group at time of treatment started. […]
# Average TGI of each model was used and represented as a dot point in the figure. P value was calculated using two tails t test to compare difference between groups.
# [2] = test system: Non-GCB DLBCL PDX models; assay: Compound 1 efficacy (TGI) in non-GCB DLBCL PDX models by CD79B / CD79B ITAM mutation; type: in vivo, mice; conditions: p.o. 7.5 mg/kg BID
# Description: as §1, with “CD79B mutant versus CD79B wildtype groups; or CD79B ITAM domain mutant (amino acid 193-210) versus CD79B ITAM domain wildtype groups.” for “Epstein-Barr virus (EBV) negative and EBV positive subgroups.”
# as §2, §3, §4, §5
# treatmentv0=tumor volume of treatment group at time of treatment started.
# Vehiclevt=tumor volume of vehicle group at time t.
# Vehiclev0=tumor volume of vehicle group at time of treatment started.
# P value was calculated using two tails t test.
smiles,measurement,setting,value
"C=CC(=O)N1CCC([C@@H]2CCNc3c(C(N)=O)c(-c4ccc(Oc5ccccc5)cc4)nn32)CC1 [Compound 1, (S)-7-(1-acryloylpiperidin-4-yl)-2-(4-phenoxyphenyl)-4,5,6,7-tetra-hydropyrazolo[1,5-a]pyrimidine-3-carboxamide]",TGI (mean±SD),[1]; EBV negative non-GCB DLBCL models,78.00±43.41%
same,TGI (mean±SD),[1]; EBV positive non-GCB DLBCL models,33.25±22.41%
same,TGI (mean±SD),[2]; CD79B ITAM domain mutation non-GCB DLBCL models,96.00±28.83%
same,TGI (mean±SD),[2]; CD79B mutation non-GCB DLBCL models,87.5±33.14%
same,TGI (mean±SD),[2]; CD79B wildtype non-GCB DLBCL models,49.44±42.36%
